{
  "source": "patent US20250064983A1",
  "about": "“COMPOSITIONS AND METHODS FOR TREATING A CARDIAC DISEASE” (The Children's Medical Center Corporation, priority 2022, published 2025)",
  "key": {"LKB1 knockout mice": {"tested_on": "LKB1 knockout mice", "experiment": "Example 5: beat-to-beat variability (EKG) in LKB1 knockout mice (AF model)", "format": "in vivo, mouse", "excerpt": "(§1) Two different atrial fibrillation (AF) mouse models were used to test the efficacy of AIP×5 at treating AF of different origins. The two different AF mouse models were liver kinase B1 (LKB1) knock out mice and T-box transcription factor 5 (Tbx5) knock out mice.\n(§2) LKB1-floxed or Tbx5-floxed mice were used to test the efficacy of AIP×5. AAV-NPPA-Cre was then used to conditionally knock out LKB1 or Tbx5 from the atria of the mice. NPPA is an atria specific promoter, ensuring that Cre recombinase directed knockout of LKB1 or Tbx5 was restricted to the atria. AAV-NPPA-FP (fluorescent protein) was used as a control virus. AAV-NPPA-FP has no Cre, and therefore the gene of interest is not knocked out. Uninjected mice were also included as a control to account for any effects caused by AAV injections. AAV-cTnT-AIP×5 or AAV-cTnT-CN19o were both tested as potential therapies to AF.\n(§3) In short, P3 LKB1-floxed or Tbx5-floxed mice were injected (or not injected in the uninjected controls), and then EKG measurements of the mice were taken every two weeks starting at P14. At 12 weeks, the mice were sacrificed, and the sacrificed mice were tested for protein expression.\nAF was calculated using the standard deviation of the beat-to-beat timing differences. A high beat-to-beat variability when sedated was indicative of atrial misfiring.\nStatistical significance in the tests illustrated in FIGS. 10 and 11 was conducted using a 2-way Anova with post-hoc Dunnett's multiple comparisons to control (FP) group."}, "[1]": {"tested_on": "RYR2^R176Q/QT and RYR2^R4560I/WT mice", "experiment": "Example 3: AAV vectors expressing AIP×5 in CPVT animal models", "format": "in vivo, mouse", "conditions": "example written in present tense", "excerpt": "FIG. 6 provides a schematic showing administration of AAV vectors to RYR2^R176Q/WT and RYR2^R4560I/WT mice. […]. The top portion of FIG. 6 provides a schematic showing the components of polynucleotides of the AAV vectors. In FIG. 6, ITR represents “inverted terminal repeat,” CASQ2 represents a calsequestrin 2 enhancer, cTnT represents a “cardiac troponin” promoter, an INT represents a hemoglobin enhancer, AIP×5 represents a multimer containing five autocamtide-2-related inhibitory peptide (AIP) units, mScarlet represents the fluorescent polypeptide mScarlet, nls represents a nuclear localization signal, “stop” represents a stop codon, and WPRE represents a Woodchuck Hepatitis Virus (WHV) Posttranscriptional Regulatory Element.\nAAV vectors expressing AIP×5 or a negative control AIV vector expressing only mScarlet (see FIG. 6) are prepared and administered to RYR2^R176Q/QT and RYR2^R4560I/WT mice, which are animal models of catecholaminergic polymorphic ventricular tachycardia (CPVT). The efficacy of the vectors in reducing symptoms of CPVT is evaluated in the animal models."}, "CaMKIIδ": {"biological_target": "CaMKIIδ (Homo sapiens, UniProt Q13557)", "sequence (Q13557 1-478)": "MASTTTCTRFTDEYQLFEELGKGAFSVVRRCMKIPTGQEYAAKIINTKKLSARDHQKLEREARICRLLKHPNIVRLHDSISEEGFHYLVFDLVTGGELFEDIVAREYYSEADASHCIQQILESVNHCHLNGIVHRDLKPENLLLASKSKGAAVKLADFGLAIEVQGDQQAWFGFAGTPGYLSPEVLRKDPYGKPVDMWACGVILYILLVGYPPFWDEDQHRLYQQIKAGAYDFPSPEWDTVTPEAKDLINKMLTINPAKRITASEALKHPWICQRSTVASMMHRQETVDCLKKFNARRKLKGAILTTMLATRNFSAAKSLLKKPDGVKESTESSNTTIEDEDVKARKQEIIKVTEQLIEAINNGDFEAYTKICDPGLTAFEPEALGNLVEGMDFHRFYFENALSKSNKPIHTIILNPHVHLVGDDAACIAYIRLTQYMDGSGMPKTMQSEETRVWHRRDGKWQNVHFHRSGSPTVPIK", "experiment": "in vitro inhibition of CaMKIIδ, bioluminescent ADP monitoring assay (ADP-GLO)", "format": "biochemical", "conditions": "purified polypeptides", "protocol": "FIG. 4 provides a schematic illustrating the design of an in vitro experiment to evaluate the impact of the purified polypeptides described in FIG. 2D and shown in the left portion of FIG. 4 on CaMKIIδ (an isomer of CaMKII) activity. Activity of CaMKIIδ was measured using a bioluminescent and homogeneous ADP monitoring assay for kinases (ADP-GLO™), which is described in Zegzouti, et al. “ADP-Glo: A Bioluminescent and Homogeneous ADP Monitoring Assay for Kinases,” ASSAY and Drug Development Technologies, December 2009, 560-572, doi.org/10.1089/adt.2009.0222, the disclosure of which is incorporated herein by reference in its entirety for all purposes.\nInhibition of CaMKIIδ activity by the polypeptides was evaluated using a bioluminescent and homogeneous ADP monitoring assay for kinases (ADP-GLO™), which is described in Zegzouti, et al. “ADP-Glo: A Bioluminescent and Homogeneous ADP Monitoring Assay for Kinases,” ASSAY and Drug Development Technologies, December 2009, 560-572, doi.org/10.1089/adt.2009.0222, the disclosure of which is incorporated herein by reference in its entirety for all purposes (FIG. 4)."}, "Tbx5 knockout mice": {"tested_on": "Tbx5 knockout mice", "experiment": "Example 5: beat-to-beat variability (EKG) in Tbx5 knockout mice (AF model)", "format": "in vivo, mouse", "excerpt": "as §1, §2, §3\nAF was calculated using the standard deviation of the beat-to-beat timing differences. A high beat-to-beat variability when sedated was indicative of atrial misfiring. […]"}},
  "note": "“Also recorded” adds a separate entry of the source.",
  "data": [
    {"sequence": "YKKALHRQEAVDALYKKALHRQEAVDALYKKALHRQEAVDALYKKALHRQEAVDALYKKALHRQEAVDAL [AIP×5]", "values": [
      {"measurement": "beat-to-beat variability compared to control (non-LKB1 knockout) mice", "setting": "LKB1 knockout mice; 2-way Anova with Dunnett's", "result": "no statistically significant difference in beat-to-beat variability"},
      {"measurement": "suppression of beat-to-beat variability", "setting": "LKB1 knockout mice; AAV-cTnT vector, FIG. 10", "result": "reduction in beat-to-beat variability; also recorded: effective in suppressing beat-to-beat variability"},
      {"measurement": "symptoms of CPVT (ectopy and/or ventricular tachycardia)", "setting": "[1]", "result": "reduction in symptoms of CPVT"},
      {"measurement": "EC50", "setting": "CaMKIIδ", "result": 114, "unit": "nM"},
      {"measurement": "suppression of beat-to-beat variability", "setting": "Tbx5 knockout mice; AAV-cTnT vector, FIG. 11", "result": "reduction in beat-to-beat variability; also recorded: effective in suppressing beat-to-beat variability"},
      {"measurement": "beat-to-beat variability, statistical difference to control", "setting": "Tbx5 knockout mice; after week 4", "result": "no statistically significant difference in beat-to-beat variability"}
    ]}
  ]
}
